Test results as given in US9102688B2, “Sulfonaminoquinoline hepcidin antagonists” (Vifor (International) AG, priority 2011, dated 2015).

What follows are compounds tested against T1, human ferroportin (Homo sapiens, UniProt Q9NP59) (assay: ferroportin internalization assay (inhibition of hepcidin-induced internalization of Fpn)). Settings: MDCK-FPN-HaloTag cells, 100 nM hepcidin, overnight incubation; concentration range from 0.04 to 40 μM.
T1 construct: expressed in transfected cells
T1 sequence (Q9NP59 1-571): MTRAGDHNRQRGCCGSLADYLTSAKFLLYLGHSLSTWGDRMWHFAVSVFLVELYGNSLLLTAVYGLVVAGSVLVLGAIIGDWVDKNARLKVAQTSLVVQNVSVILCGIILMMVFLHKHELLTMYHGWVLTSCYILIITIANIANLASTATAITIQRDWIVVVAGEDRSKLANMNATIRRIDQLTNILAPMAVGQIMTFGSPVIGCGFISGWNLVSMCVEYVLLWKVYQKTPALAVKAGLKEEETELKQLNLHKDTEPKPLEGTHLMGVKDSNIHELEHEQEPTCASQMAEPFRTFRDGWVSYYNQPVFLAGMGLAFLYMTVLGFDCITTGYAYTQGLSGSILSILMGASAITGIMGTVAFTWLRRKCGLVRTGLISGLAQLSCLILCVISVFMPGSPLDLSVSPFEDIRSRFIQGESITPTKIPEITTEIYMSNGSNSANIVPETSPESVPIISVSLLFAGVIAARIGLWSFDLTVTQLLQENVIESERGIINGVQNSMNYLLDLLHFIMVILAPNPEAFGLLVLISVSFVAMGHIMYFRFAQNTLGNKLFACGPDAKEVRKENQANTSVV
Type: cell-based
In short: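 MDCK cells stably expressing human ferroportin–HaloTag were labelled with TMR ligand, then incubated overnight at 37 °C with compound plus 100 nM hepcidin (final). After fixation and nuclear staining, confocal imaging quantified membrane Fpn fluorescence to measure blocking of hepcidin-induced internalization.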

| Compound | IC50 |
| --- | --- |
| O=S1(=O)Nc2c(cc(C(F)(F)F)c3cccnc23)-c2cc(Cl)ccc21 [Example 312, 9-Chloro-12-trifluoromethyl-5H-6-thia-4,5-diaza-chrysene 6,6-dioxide] | 8510 nM |
| COc1ccc2c(c1)S(=O)(=O)Nc1c-2ccc2cccnc12 [Example 326, 8-Methoxy-5H-6-thia-4,5-diaza-chrysene 6,6-dioxide] | 2110 nM |
| CC(O)c1cc2c(c3ncccc13)NS(=O)(=O)N(C)C2c1ccc(F)cc1 (stereo not drawn) [Example 403, 1-[1-(4-Fluoro-phenyl)-2-methyl-3,3-dioxo-1,2,3,4-tetrahydro-3λ*6*-thia-2,4,5-triaza-phenanthren-9-yl]-ethanol] | 2370 nM |
| N#Cc1ccc(S(=O)(=O)Nc2cc(F)cc3cccnc23)cn1 [Example 239, 6-Cyano-pyridine-3-sulfonic acid (6-fluoro-quinolin-8-yl)-amide] | 3750 nM |
| O=S1(=O)Nc2c(ccc3c(Cl)ccnc23)-c2ccccc21 [Example 305, 1-Chloro-5H-6-thia-4,5-diaza-chrysene 6,6-dioxide] | 12500 nM |
| O=S(=O)(Nc1ccc(Cl)c2cccnc12)c1cccnc1 [Example 60, Pyridine-3-sulfonic acid (5-chloro-quinolin-8-yl)-amide] | 1780 nM |
| O=S1(=O)Nc2c(ccc3cccnc23)-c2ccc(C(F)(F)F)cc21 [Example 332, 8-Trifluoromethyl-5H-6-thia-4,5-diaza-chrysene 6,6-dioxide] | 2340 nM |
| O=S1(=O)Nc2c(ccc3cccnc23)C(c2ccc(F)cc2)N1 (stereo not drawn) [Example 398, 1-(4-Fluoro-phenyl)-1,4-dihydro-2H-3-thia-2,4,5-triaza-phenanthrene 3,3-dioxide] | 2780 nM |
| COc1cc(NS(=O)(=O)c2ccc(Cl)cc2F)c2ncccc2c1 [Example 57, 4-Chloro-2-fluoro-N-(6-methoxy-quinolin-8-yl)-benzenesulfonamide] | 1750 nM |
| O=S(=O)(Nc1cccc2cccnc12)c1ccc(Cl)cc1 [Example 5, 4-Chloro-N-quinolin-8-yl-benzenesulfonamide] | 3200 nM |
| O=S1(=O)Nc2c(cc(Cl)c3cccnc23)-c2cc(N3CCOCC3)ccc21 [Example 509, 12-Chloro-9-morpholin-4-yl-5H-6-thia-4,5-diaza-chrysene 6,6-dioxide] | 1620 nM |
| Cc1cc2c(cc1F)-c1ccc3cccnc3c1NS2(=O)=O [Example 331, 9-Fluoro-8-methyl-5H-6-thia-4,5-diaza-chrysene 6,6-dioxide] | 3240 nM |
| O=S1(=O)Nc2c(ccc3cccnc23)-c2ccc(F)cc21 [Example 330, 8-Fluoro-5H-6-thia-4,5-diaza-chrysene 6,6-dioxide] | 1620 nM |
| O=S1(=O)Nc2c(cc(F)c3cccnc23)-c2cc(C(F)(F)F)ccc21 [Example 306, 12-Fluoro-9-trifluoromethyl-5H-6-thia-4,5-diaza-chrysene 6,6-dioxide] | 4190 nM |
| O=S(=O)(Nc1cc(F)cc2cccnc12)c1cccnc1 [Example 96, Pyridine-3-sulfonic acid (6-fluoro-quinolin-8-yl)-amide] | 5870 nM |
| O=S(=O)(Nc1cc(F)cc2cccnc12)c1ccccn1 [Example 236, Pyridine-2-sulfonic acid (6-fluoro-quinolin-8-yl)-amide] | 2370 nM |
| Cc1cccc(S(=O)(=O)Nc2cccc3cccnc23)c1 [Example 19, 3-Methyl-N-quinolin-8-yl-benzenesulfonamide] | 2090 nM |
| CN1C(c2ccc(F)cn2)c2ccc3cccnc3c2NS1(=O)=O (stereo not drawn) [Example 388, 1-(5-Fluoro-pyridin-2-yl)-2-methyl-1,4-dihydro-2H-3-thia-2,4,5-triaza-phenanthrene 3,3-dioxide] | 1570 nM |
| N#Cc1ccc(S(=O)(=O)Nc2cccc3cccnc23)cn1 [Example 116, 6-Cyano-pyridine-3-sulfonic acid quinolin-8-ylamide] | 4260 nM |
| O=S(=O)(Nc1cccc2cccnc12)c1cccnc1 [Example 33, Pyridine-3-sulfonic acid quinolin-8-ylamide] | 3640 nM |
| O=S(=O)(Nc1cccc2cccnc12)c1ccc(C(F)(F)F)nc1 [Example 89, 6-Trifluoromethyl-pyridine-3-sulfonic acid quinolin-8-ylamide] | 3690 nM |
| Nc1ccc2c(c1)-c1cc(Cl)c3cccnc3c1NS2(=O)=O [Example 519, 12-Chloro-6,6-dioxo-5,6-dihydro-6λ*6*-thia-4,5-diaza-chrysen-9-ylamine] | 3570 nM |
| O=S(=O)(Nc1cccc2cccnc12)Oc1ccccc1 [Example 70, Quinolin-8-yl-sulfamic acid phenyl ester] | 3250 nM |
| O=S1(=O)NCc2ccc3cccnc3c2N1 [Example 114, 1,4-Dihydro-2H-3-thia-2,4,5-triaza-phenanthrene 3,3-dioxide] | 39500 nM |
| COC(=O)c1ccnc2c3c(ccc12)-c1ccccc1S(=O)(=O)N3 [Example 319, 6,6-Dioxo-5,6-dihydro-6λ*6*-thia-4,5-diaza-chrysene-1-carboxylic acid methyl ester] | 2940 nM |
| O=S1(=O)Nc2c(ccc3cccnc23)-c2cc(F)ccc21 [Example 74, 9-Fluoro-5H-6-thia-4,5-diaza-chrysene 6,6-dioxide] | 1560 nM |
| O=S1(=O)Nc2c(cc(Cl)c3cccnc23)-c2cc(NC(CO)CO)ccc21 [Example 512, 2-(12-Chloro-6,6-dioxo-5,6-dihydro-6λ*6*-thia-4,5-diaza-chrysen-9-ylamino)-propane-1,3-diol] | 13400 nM |
| O=S(=O)(Nc1cccc2cccnc12)c1cncc(C(F)(F)F)c1 [Example 229, 5-Trifluoromethyl-pyridine-3-sulfonic acid quinolin-8-ylamide] | 3980 nM |
| O=S(=O)(Nc1cc(OC(F)(F)F)cc2cccnc12)c1ccccc1 [Example 92, N-(6-Trifluoromethoxy-quinolin-8-yl)-benzenesulfonamide] | 9000 nM |

Continued by falling IC50, values first:

| IC50 | Compound |
| --- | --- |
| 1560 nM | O=S1(=O)Nc2c(cc(N3CCCCC3)c3cccnc23)-c2ccccc21 [Example 551, 12-Piperidin-1-yl-5H-6-thia-4,5-diaza-chrysene 6,6-dioxide] |
| 1480 nM | COc1ccc(C2c3ccc4cccnc4c3NS(=O)(=O)N2C)cc1F (stereo not drawn) [Example 396, 1-(3-Fluoro-4-methoxy-phenyl)-2-methyl-1,4-dihydro-2H-3-thia-2,4,5-triaza-phenanthrene 3,3-dioxide] |
| 1420 nM | COC(=O)c1cccc(S(=O)(=O)Nc2cccc3cccnc23)c1 [Example 40, 3-(Quinolin-8-ylsulfamoyl)-benzoic acid methyl ester] |
| 1200 nM | O=S(=O)(Nc1cccc2cccnc12)c1cccc(OC(F)(F)F)c1 [Example 38, N-Quinolin-8-yl-3-trifluoromethoxy-benzenesulfonamide] |
| 1170 nM | O=S1(=O)Nc2c(ccc3cccnc23)-c2cc(OC(F)(F)F)ccc21 [Example 333, 9-Trifluoromethoxy-5H-6-thia-4,5-diaza-chrysene 6,6-dioxide] |
| 1140 nM | O=S1(=O)Nc2c(cc(N3CCOCC3)c3cccnc23)-c2ccccc21 [Example 549, 12-Morpholin-4-yl-5H-6-thia-4,5-diaza-chrysene 6,6-dioxide] |
| 910 nM | CN(C)c1ccc2c(c1)-c1ccc3cccnc3c1NS2(=O)=O [Example 502, (6,6-Dioxo-5,6-dihydro-6λ*6*-thia-4,5-diaza-chrysen-9-yl)-dimethyl-amine] |
| 873 nM | O=S(=O)(Nc1cccc2cccnc12)c1ccc(Cl)cc1F [Example 42, 4-Chloro-2-fluoro-N-quinolin-8-yl-benzenesulfonamide] |
| 870 nM | CN1C(c2ccccc2)c2ccc3cccnc3c2NS1(=O)=O (stereo not drawn) [Example 115, 2-Methyl-1-phenyl-1,4-dihydro-2H-3-thia-2,4,5-triaza-phenanthrene 3,3-dioxide] |
| 815 nM | N#Cc1ccccc1S(=O)(=O)Nc1cccc2cccnc12 [Example 37, 2-Cyano-N-quinolin-8-yl-benzenesulfonamide] |
| 760 nM | Nc1cc(C(F)(F)F)ccc1S(=O)(=O)Nc1cccc2cccnc12 [Example 35, 2-Amino-N-quinolin-8-yl-4-trifluoromethyl-benzenesulfonamide] |
| 720 nM | CN1C(c2cccc(F)c2)c2ccc3cccnc3c2NS1(=O)=O (stereo not drawn) [Example 389, 1-(3-Fluoro-phenyl)-2-methyl-1,4-dihydro-2H-3-thia-2,4,5-triaza-phenanthrene 3,3-dioxide] |
| 599 nM | Cc1cc2c(c3ncccc13)NS(=O)(=O)c1ccccc1-2 [Example 107, 12-Methyl-5H-6-thia-4,5-diaza-chrysene 6,6-dioxide] |
| 460 nM | O=S(=O)(Nc1ccc(C(F)(F)F)c2cccnc12)c1ccccn1 [Example 234, Pyridine-2-sulfonic acid (5-trifluoromethyl-quinolin-8-yl)-amide] |
| 420 nM | O=S1(=O)Nc2c(cc(Cl)c3cccnc23)-c2cc(OC3CCCC3)ccc21 [Example 514, 12-Chloro-9-cyclopentyloxy-5H-6-thia-4,5-diaza-chrysene 6,6-dioxide] |
| 320 nM | O=S1(=O)Nc2c(cc(Cl)c3cccnc23)-c2ccccc21 [Example 328, 12-Chloro-5H-6-thia-4,5-diaza-chrysene 6,6-dioxide] |
